The NIST ThermoML archive (doi:10.1021/je5008372)
Numbers after ± are expanded uncertainties.

How the values were obtained:
[1] = 86.8 kPa, Liquid; for viscosity: Capillary tube (Ostwald / Ubbelohde) method; for speed of sound: Sing-around technique in a fixed-path interferometer; for mass density: Vibrating tube method
[2] = refractive index (Na D-line) (dimensionless); settings: 86.8 kPa, Liquid, Standard Abbe refractometry
[3] = mn = molality of the nth substance listed, in mol/kg; settings: 86.8 kPa, Liquid; for viscosity: Capillary tube (Ostwald / Ubbelohde) method; for speed of sound: Sing-around technique in a fixed-path interferometer; for mass density: Vibrating tube method
[4] = refractive index (Na D-line) (dimensionless); mn = molality of the nth substance listed, in mol/kg; settings: 86.8 kPa, Liquid, Standard Abbe refractometry

CC#N [acetonitrile]
Settings | mass density, [1] [kg/m3] | refractive index, [2] | speed of sound, [1] [m/s] | viscosity, [1] [mPa·s]
288.15 K | 787.395 ± 0.15 | 1.3461 ± 0.004 | 1319.1 ± 1.2 | 0.388 ± 0.01
298.15 K | 776.615 ± 0.16 | 1.3412 ± 0.004 | 1278.6 ± 1.2 | 0.344 ± 0.01
308.15 K | 765.81 ± 0.17 | 1.3371 ± 0.004 | 1238.3 ± 1.2 | 0.313 ± 0.01
318.15 K | 754.851 ± 0.17 | 1.3327 ± 0.004 | 1198.2 ± 1.2 | 0.289 ± 0.01

CCCCn1cc[n+](C)c1.[Br-] [1-butyl-3-methylimidazolium bromide] + CC#N
Settings | mass density, [3] [kg/m3] | refractive index, [4] | speed of sound, [3] [m/s] | viscosity, [3] [mPa·s]
288.15 K, m1 = 0.1046 | 796.218 ± 0.17 | 1.3492 ± 0.004 | 1323.5 ± 1.2 | 0.4 ± 0.01
288.15 K, m1 = 0.2021 | 803.662 ± 0.2 | 1.3528 ± 0.004 | 1327.1 ± 1.2 | 0.421 ± 0.01
288.15 K, m1 = 0.2996 | 810.75 ± 0.17 | 1.3557 ± 0.004 | 1330.3 ± 1.2 | 0.44 ± 0.01
298.15 K, m1 = 0.1046 | 785.312 ± 0.18 | 1.3449 ± 0.004 | 1283.2 ± 1.2 | 0.363 ± 0.01
298.15 K, m1 = 0.2021 | 792.989 ± 0.17 | 1.3479 ± 0.004 | 1287.1 ± 1.2 | 0.38 ± 0.01
298.15 K, m1 = 0.2996 | 800.167 ± 0.17 | 1.3509 ± 0.004 | 1290.3 ± 1.2 | 0.398 ± 0.01
308.15 K, m1 = 0.1046 | 774.491 ± 0.18 | 1.3402 ± 0.004 | 1243.2 ± 1.2 | 0.331 ± 0.01
308.15 K, m1 = 0.2021 | 782.263 ± 0.18 | 1.3429 ± 0.004 | 1247.2 ± 1.2 | 0.346 ± 0.01
308.15 K, m1 = 0.2996 | 789.528 ± 0.18 | 1.3462 ± 0.004 | 1250.6 ± 1.2 | 0.361 ± 0.01
318.15 K, m1 = 0.1046 | 763.59 ± 0.19 | 1.3359 ± 0.004 | 1203.1 ± 1.2 | 0.304 ± 0.01
318.15 K, m1 = 0.2021 | 771.427 ± 0.19 | 1.3381 ± 0.004 | 1207.3 ± 1.2 | 0.318 ± 0.01
318.15 K, m1 = 0.2996 | 778.947 ± 0.18 | 1.3402 ± 0.004 | 1210.8 ± 1.2 | 0.331 ± 0.01
